Assay results: patent US8050868B2, “Methods for determining the organization of a cellular component of interest” (Cellomics, Inc., priority 2001, dated 2011)

How the values were obtained:
monocytes = assay: Cell-based analysis of microtubule-targeting drugs, anti-tubulin immunocytochemistry, monocytes
Protocol: (§1) The mechanism of action of microtubule-targeting drugs was assessed in a cell component of interest field, represented as an image of tubulin-stained cells. Fibroblasts, epithelial cells,) and monocytes were left untreated ) or were treated with a variety of microtubule-targeting drugs. Cells were fixed and then stained with anti-tubulin immunocytochemistry, in order to determine how the different drugs affect morphological organization of microtubules.

epithelial cells = assay: Cell-based analysis of microtubule-targeting drugs, anti-tubulin immunocytochemistry, epithelial cells
Protocol: as §1

Fibroblasts = assay: Cell-based analysis of microtubule-targeting drugs, anti-tubulin immunocytochemistry, fibroblasts
Protocol: as §1

3T3 cells [1] = assay: Quantitative determination of microtubule polymer content (perinuclear ring mask, anti-tubulin immunofluorescence); format: cell-based; conditions: two-hour treatment
Protocol: (§2) Cell culture/drug treatments: Cells were plated on 96-well plates in the appropriate cell culture media plus 10% FBS. […] Different plating densities and treatment times were explored to maximize the observable effects of the drugs.
Immunofluorescence: This included three steps: (1) Extraction of soluble (monomeric) tubulin by permeabilizing the cells with 0.5% Triton X-100 in a microtubule stabilizing buffer, in order to remove unpolymerized tubulin. (2) Fixation of intracellular protein with 4% formaldehyde. (3) Microtubule, DNA, and (optional) total cellular protein fluorescence labeling. […]
Image Analysis: Quantitative determination of microtubule polymer levels was performed using the methods described above. […] The nuclear image was dilated to produce a perinuclear ring mask, where cytoplasmic tubulin polymer was measured. […]
Quantitation of microtubule-associated intensity was carried out by summing the pixel intensities in the microtubule (MT) channel in the area covered by the perinuclear ring mask. […] From these measurements a MT polymerization index was calculated by normalizing the amount of MT fluorescence in a treated, “experimental” cell population, versus the amount of MT-associated fluorescence in an untreated, control cell population. […] Other methods of quantitation that were used are described below. […]

microtubules [2] = assay: Preliminary time-course and 12 hour dose-response evaluations of microtubule polymer mass; format: cell-based
Protocol: as §2
(§3) Immunofluorescence: This included three steps: (1) Extraction of soluble (monomeric) tubulin by permeabilizing the cells with 0.5% Triton X-100 in a microtubule stabilizing buffer, in order to remove unpolymerized tubulin. (2) Fixation of intracellular protein with 4% formaldehyde. (3) Microtubule, DNA, and (optional) total cellular protein fluorescence labeling. Microtubule staining was carried out by a standard immunofluorescence procedures using a primary mouse monoclonal antibody (anti-tubulin IgG), and affinity purified polyclonal secondary antibody (ALEXA FLUOR® 488-conjugated anti-mouse IgG (Molecular Probes, Inc. Eugene, OR)). After the cells were stained, DNA was labeled with 10 microgram/ml Hoechst 33342.
(§4) For cells triple-stained with tetramethylrhodamine iodoacetate (TMRIA) (Molecular Probes), Hoechst 33342, and ALEXA FLUOR® 488 (tubulin), or cells double stained with Hoechst 33342 and ALEXA FLUOR® 488, an XF57 filter block was used.
Image Analysis: Quantitative determination of microtubule polymer levels was performed using the methods described above. For analysis, a binary nuclear mask was made by thresholding the Hoechst image. The nuclear image was dilated to produce a perinuclear ring mask, where cytoplasmic tubulin polymer was measured. The ring mask allowed measurement of average intensity levels associated with the microtubule image. […] Other methods of image analysis that were used are described below.
Quantitation of microtubule-associated intensity was carried out by summing the pixel intensities in the microtubule (MT) channel in the area covered by the perinuclear ring mask. This integrated pixel intensity was then divided by the actual area of the perinuclear ring mask to arrive at the mean or “average” pixel intensity in the region covered by the perinuclear ring. From these measurements a MT polymerization index was calculated by normalizing the amount of MT fluorescence in a treated, “experimental” cell population, versus the amount of MT-associated fluorescence in an untreated, control cell population. This polymerization index represents a fraction or percentage of MT polymerization or depolymerization, relative to the untreated controls. Other methods of quantitation that were used are described below.
In addition, preliminary time-course and 12 hour dose-response evaluations using paclitaxel, nocodazole, and vinblastine were performed.

tubulin [3] = assay: Population analysis of spatial organization of tubulin with five annular domains; conditions: five perinuclear annular domains; n>20 cells; duplicate
tubulin [4] = conditions: single annular domain divided into 24 angular domains
3T3 cells [5] = assay: Histogram distribution of microtubule-associated pixel intensities (OD variance); format: cell-based; conditions: individual 3T3 cells
Text: Finally, histogram distribution of microtubule-associated pixel intensities in individual 3T3 cells was used to distinguish control cells from cells treated with nocodazole, paclitaxel, and vinblastine.

microtubules [6] = assay: Peaks and valleys of pixel intensity around the perinuclear ring mask (modal classification)
microtubules [7] = assay: Microtubule organization using concentric perinuclear ring masks; format: cell-based; conditions: for effect on microtubule organization / pattern of microtubule-associated fluorescence: similarity to other treatments: five sequential dilations of perinuclear ring mask, duplicate wells
Protocol: Domains were defined by five sequential dilations of a perinuclear ring mask, and measurements were made of the mean microtubule-associated intensity, the standard deviation of the microtubule-associated intensity, the mean cytoplasm to nucleus fluorescence intensity ratio, and cell-normalized microtubule fluorescence intensity. For each drug treatment condition, experiments were performed in duplicate.
Finally, the slope of the best linear fit of the microtubule associated fluorescence was calculated as a function of the angular dilation. This way, it was possible to compare the rate of change of these parameters as a function of domain position.

microtubules [8] = assay: Microtubule organization using a single perinuclear ring mask and field based threshold measurements (spot count, spot area); format: cell-based; conditions: min-max plates
Protocol: as §2, §3, §4

tubulin [9] = assay: Multi-domain analysis of tubulin organization (angular, transverse, annular domains); format: cell-based; conditions: single cell
Protocol: Referring to FIG. 8, experiments were conducted to analyze tubulin organization in untreated (8A-D) and drug-treated (8E-H) fields of cells using angular (8B,F), transverse (8C, G) or annular domains (8D,H). […] For the purpose of analysis, cell boundaries were defined (8B-D, 8F-H) based on the reference component origin (which here is the nuclear perimeter). The component of interest field was thresholded to show the brightest pixels, and a single cell is shown for illustration purposes.
The spatial organization of intensity distribution within individual cells was then analyzed in an object of interest image, using annular domains (as in FIGS. […]). The data are shown in FIG. 9 as graphs of tubulin distribution in a single control (9A-C) and a vinblastine-treated cell (9D-F). Annular domains were created by sequential dilations of the nuclear perimeter. The position of the domain furthest away from the nucleus was given a value of one, and domain position increases in number with nuclear proximity. For each plot, measurements of tubulin distribution were normalized, by dividing the measurement obtained in a particular domain by the measurement obtained in the domain that is immediately adjacent to the nucleus. Intensity distribution within each domain was analyzed using a mathematical function to calculate the following: (1) the average pixel intensity (a measure proportional to tubulin mass) (9A, D); (2) texture difference moment (a measure proportional to tubulin periodicity) (9B, E); and (3) OD variance (a measure proportional to tubulin clustering) (9C,F). To determine the trends within each cell, data points were fitted with a linear function. […] For comparing cell populations under different treatment conditions, a number of cells in each condition can be analyzed as a sample, and the average slope within each sample used for statistical analysis.

[10] = nanomolar concentrations, 12 hour incubation
[11] = micromolar doses, 12 hour incubation

Structure (SMILES)	morphological organization of microtubules (monocytes)	morphological organization of microtubules (epithelial cells)	morphological organization of microtubules (Fibroblasts)	effect on microtubules and cell division (microtubules [2]; [10])	standard deviation of mean tubulin fluorescence: similarity of tubulin organization to other treatments (tubulin [3])	above threshold peaks in intensity distribution per cell, on average (tubulin [4])	whether OD variance of the pixel intensity distribution distinguishes treated vs. control cell populations (3T3 cells [5])	type of spatial distribution of fluorescent pixel intensities at the nuclear periphery (mono-modal, non-modal, multi-modal) (microtubules [6])	slope of best linear fit of microtubule associated fluorescence vs domain position: similarity to other treatments (microtubules [7])	effect on microtubule organization (microtubules [7])	pattern of microtubule-associated fluorescence: similarity to other treatments (microtubules [7])	well average spot area (microtubules [8])	well normalized spot counts (microtubules [8])	further results
COC(=O)Nc1nc2ccc(C(=O)c3cccs3)cc2[nH]1 [nocodazole]	led to microtubule depolymerization and led to diffuse tubulin staining	induced microtubule depolymerization and led to diffuse staining of tubulin throughout the cell cytoplasm	depolymerized the microtubules, and led to a diffuse staining of tubulin throughout the cytoplasm	inhibit cell division without necessarily inducing the net depolymerization of microtubules	more similar to colchicine-treated cells	2 spots	could distinguish	Non-modal	most similar to the slope of cells treated with colchicine	microtubule disruption	resembled colchicine treated cells			cell-associated microtubule intensity (3T3 cells [1]; 5 micromolar): significant decrease; microtubule polymer mass (microtubules [2]; [10]): increase
CC(=O)O[C@H]1C(=O)[C@@]2(C)[C@H]([C@H](OC(=O)c3ccccc3)[C@]3(O)C[C@H](OC(=O)[C@H](O)[C@@H](NC(=O)c4ccccc4)c4ccccc4)C(C)=C1C3(C)C)[C@]1(OC(C)=O)CO[C@@H]1C[C@@H]2O [paclitaxel, Paclitaxel]	decreased microtubule staining in the nuclear region	induced formation of microtubule bundles in association with the cell edge	formation of microtubule bundles, and destroyed the focal organization of microtubules		more similar to vinblastine-treated cells	4 spots	could distinguish	Multimodal	most similar to the slope of cells treated with vinblastine	formation of microtubule bundles or aggregates in the cytoplasm	resembled vinblastine treated cells	increased	partly increased	cell-associated microtubule intensity (3T3 cells [1]; 1 micromolar): significant increase; quality of dose-response data (microtubules [2]; 12 hour dose-response, preliminary): excellent dose response data
CC[C@]1(O)C[C@@H]2CN(CCc3c([nH]c4ccccc34)[C@@](C(=O)OC)(c3cc4c(cc3OC)N(C)[C@H]3[C@@](O)(C(=O)OC)[C@H](OC(C)=O)[C@]5(CC)C=CCN6CC[C@]43[C@@H]65)C2)C1 [vinblastine]	intermediate effect between nocodazole and paclitaxel	disrupted the microtubules and led to the formation of tubulin paracrystals	depolymerized the microtubules and led to the formation of tubulin paracrystals	depolymerized microtubules and inhibited microtubule polymerization		3 spots	could not distinguish	Multimodal		formation of microtubule bundles or aggregates in the cytoplasm		significant decrease	partly increasing	effect on tubulin organization (microtubules [2]; [11]): induced the formation of tubulin paracrystals; microtubule polymer mass (microtubules [2]; [11]): apparent increase; distribution of brightest thresholded pixels over angular, transverse or annular domains (tubulin [9]; FIG. 8): broader distribution; OD variance (tubulin clustering) as a function of domain position (tubulin [9]; FIG. 9): marked decrease; texture difference moment (tubulin periodicity) as a function of distance from the nucleus (tubulin [9]; FIG. 9): centrifugal increase; trend of average pixel intensity (tubulin mass) as a function of annular domain position (tubulin [9]; linear fit, FIG. 9): positive slope
